Measured values taken from patent US7528253B2, “Compounds having β2 adrenergic receptor agonist and muscarinic receptor antagonist activity” (Theravance, Inc., priority 2004, dated 2009).

What was measured:
[1] = molecular target: T1, human β2 adrenergic receptor (Homo sapiens, UniProt P07550); experiment: Radioligand binding assay for human β2 adrenergic receptor (Assay Test Procedure A); conditions: displacement of [3H]-dihydroalprenolol, CHO membranes
T1 construct: expressed in transfected cells; membranes prepared
T1 sequence (P07550 whole entry): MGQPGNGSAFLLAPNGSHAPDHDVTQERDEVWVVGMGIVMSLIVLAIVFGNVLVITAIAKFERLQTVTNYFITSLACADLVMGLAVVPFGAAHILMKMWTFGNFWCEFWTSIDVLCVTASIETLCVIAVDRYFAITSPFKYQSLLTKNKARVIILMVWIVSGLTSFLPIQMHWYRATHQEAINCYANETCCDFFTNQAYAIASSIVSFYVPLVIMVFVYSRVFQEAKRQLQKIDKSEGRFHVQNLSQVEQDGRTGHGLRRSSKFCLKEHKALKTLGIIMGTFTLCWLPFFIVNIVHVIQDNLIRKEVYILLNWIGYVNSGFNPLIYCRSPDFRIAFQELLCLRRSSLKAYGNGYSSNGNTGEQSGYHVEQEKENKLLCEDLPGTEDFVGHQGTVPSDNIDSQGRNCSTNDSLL
Procedure: Chinese hamster ovarian (CHO) cell lines stably expressing cloned human β1, β2 or β3 adrenergic receptors, respectively, were grown to near confluency in Hams F-12 media with 10% FBS in the presence of 500 μg/mL Geneticin. The cell monolayer was lifted with 2 mM EDTA in PBS. Cells were pelleted by centrifugation at 1,000 rpm, and cell pellets were either stored frozen at −80° C. or membranes were prepared immediately for use. For preparation of β1 and β2 receptor expressing membranes, cell pellets were re-suspended in lysis buffer (10 mM HEPES/HCl, 10 mM EDTA, pH 7.4 at 4° C.) and homogenized using a tight-fitting Dounce glass homogenizer (30 strokes) on ice. […] The protein concentration of the membrane suspension was determined by the methods described in Lowry et al., 1951, Journal of Biological Chemistry, 193, 265; and Bradford, Analytical Biochemistry, 1976, 72, 248-54. […]
Binding assays were performed in 96-well microtiter plates in a total assay volume of 100 μL with 10-15 μg of membrane protein containing the human β1, β2 or β3 adrenergic receptors in assay buffer (75 mM Tris/HCl pH 7.4 at 25° C., 12.5 mM MgCl2, 1 mM EDTA, 0.2% BSA). […] Non-specific binding was determined in the presence of 10 μM propranolol. […] Filter plates were washed three times with filtration buffer (75 mM Tris/HCl pH 7.4 at 4° C., 12.5 mM MgCl2, 1 mM EDTA) to remove unbound radioactivity. […]

[2] = molecular target: T2, M3 muscarinic receptor (hM3) (Homo sapiens, UniProt P20309); experiment: Radioligand binding assay for muscarinic receptors (Assay Test Procedure B); conditions: displacement of [3H]-NMS, CHO cell membranes
T2 construct: expressed in transfected cells; membranes prepared
T2 sequence (P20309 whole entry): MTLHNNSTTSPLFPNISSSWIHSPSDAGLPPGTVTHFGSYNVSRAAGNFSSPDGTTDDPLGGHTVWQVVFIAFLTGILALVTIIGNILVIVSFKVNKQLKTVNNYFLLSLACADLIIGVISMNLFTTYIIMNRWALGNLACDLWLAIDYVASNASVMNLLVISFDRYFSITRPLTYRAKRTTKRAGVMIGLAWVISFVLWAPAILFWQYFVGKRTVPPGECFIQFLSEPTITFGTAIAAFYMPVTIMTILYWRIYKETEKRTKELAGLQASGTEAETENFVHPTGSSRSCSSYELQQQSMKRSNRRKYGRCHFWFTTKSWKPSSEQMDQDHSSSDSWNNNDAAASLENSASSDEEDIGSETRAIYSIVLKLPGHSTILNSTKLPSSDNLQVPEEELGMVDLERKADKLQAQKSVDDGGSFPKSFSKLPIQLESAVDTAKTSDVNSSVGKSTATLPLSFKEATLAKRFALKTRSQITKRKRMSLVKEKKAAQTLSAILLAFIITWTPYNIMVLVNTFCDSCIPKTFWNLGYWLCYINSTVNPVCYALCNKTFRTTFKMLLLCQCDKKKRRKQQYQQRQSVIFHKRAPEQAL
Procedure: CHO cell lines stably expressing cloned human hM1, hM2, hM3 and hM4 muscarinic receptor subtypes, respectively, were grown to near confluency in HAM's F-12 media supplemented with 10% FBS and 250 μg/mL Geneticin. The cells were grown in a 5% CO2, 37° C. incubator and lifted with 2 mM EDTA in dPBS. Cells were collected by 5 minute centrifugation at 650× g, and cell pellets were either stored frozen at −80° C. or membranes were prepared immediately for use. For membrane preparation, cell pellets were resuspended in lysis buffer and homogenized with a Polytron PT-2100 tissue disrupter (Kinematica AG; 20 seconds×2 bursts). Crude membranes were centrifuged at 40,000× g for 15 minutes at 4° C. […] The protein concentration of the membrane suspension was determined by the method described in Lowry et al., 1951, Journal of Biochemistry, 193, 265. […]
Radioligand binding assays for cloned human muscarinic receptors were performed in 96-well microtiter plates in a total assay volume of 100 μL. […] Filter plates were rinsed three times with wash buffer (10 mM HEPES) to remove unbound radioactivity. […] The plates were then counted in a PerkinElmer Topcount liquid scintillation counter (PerkinElmer Inc., Wellesley, Mass.). Binding data were analyzed by nonlinear regression analysis with the GraphPad Prism Software package (GraphPad Software, Inc., San Diego, Calif.) using the one-site competition model. […]

- Ki [1]: < 300 nM
- Ki [2]: < 300 nM
SMILES: CN(CCCCCCCCCNC[C@H](O)c1ccc(O)c2[nH]c(=O)ccc12)CCC(C)(C)OC(=O)Nc1ccccc1-c1ccccc1 [Example 1, Biphenyl-2-ylcarbamic Acid 3-({9-[(R)-2-Hydroxy-2-(8-hydroxy-2-oxo-1,2-dihydro-quinolin-5-yl)ethylamino]nonyl}methylamino)-1,1-dimethylpropyl Ester]
